SMILES strings stand for the structures.

Assay [1] has as its system nitric oxide production by LPS-induced macrophages. The experiment in a line: Griess assay for NO production. In kind it is cell-based, murine. Conditions: aspirin 10 μM, LPS 1 μg/mL, 24 hours. The protocol:
Down-regulation of various pro-inflammatory genes, including iNOS, IL1β and TNF-α, can reduce nitric oxide production by macrophages. In order to confirm that changes in pro-inflammatory gene expression were affecting cellular function, the Griess assay was performed to indirectly measure nitric oxide production by LPS-induced macrophages by measuring nitrite. For the assay, RAW cells were plated in a 96-well plate at a minimum density of 5×10^3 cells/well and grown for 24 hours. […] After 24 hours, conditioned media (50 μl) was removed and immediately mixed with 100 μl of Griess reagent ([…], 1% naphthalene-ethylenediamine dihydrochloride in 5% H3PO4). After incubation for 15 minutes at room temperature, the samples were read at 550 nm using a microplate spectrophotometer (Molecular Devices, Sunnyvale, Calif.). Data for each treatment were normalized based on results from an MTT cell proliferation assay.
(Nitrite, measured by Griess reagent, commonly stands in for NO production.)

The next assay relates to Wistar rats. The assay can be described thus: Carrageenan-induced rat paw edema. In kind it is in vivo. Conditions: indomethacin (15 mg/kg). As to the method:
Groups of 5 adult male and female Wistar rats with body weights from 136 g to 170 g were used for this study. Rats were housed five animals per cage in a room kept at 24-26° C. and fed ad libitium. Before the experiment began, rat paw sizes were recorded by measuring paw volume three times on each animal using a plethysmometer (Ugo Basile, Comerio VA, Italy). The values were averaged to give a baseline paw size value. To start the experiment, animals were given a subcutaneous injection of 1% carrageenan (100 μl; Sigma, St. Louis, Mo.) in the area of the back paw to induce an acute inflammatory reaction (paw edema). One hour after carrageenan injection, rats were orally gavaged with chicory extract or vehicle control (4% apricot kernel balm). Paw size was measured at 3 hours, 5 hours, and 24 hours after injection. The increase in paw edema at each time point was determined by comparison with paw volume measured pre-injection. Inhibition of edema was calculated by comparison with vehicle control at the same time point.
A general note: The carrageenan paw model is a standard test of acute inflammation.

The next assay has as its system BALB/c mice. The experiment in a line: Collagen induced arthritis (type II collagen mAbs with LPS challenge). Format: in vivo. Conditions: indomethacin 3 mg/kg oral. As to the method:
Groups of 5 BALB/c mice weighing 25±2 g were used for this study. A 4 mg/mouse combination of 4 monoclonal antibodies (mAbs) against type II collagen (D8, F10, DI-2G, and A2; IBL Co., Japan) was administered to mice intravenously on day 0 of the study to induce an inflammatory reaction mimicking rheumatoid arthritis. On day 3 of the study, mice were given LPS ([…]) intravenously to potentiate the inflammatory effect. One hour after LPS administration, mice were dosed orally with chicory extract (200 mg/kg), indomethacin (3 mg/kg; Sigma, St. Louis, Mo.), or vehicle control (1% carboxymethylcellulose, CMC; Sigma, St. Louis, Mo.). Mice were dosed with chicory extract or vehicle for two more consecutive days. Volumes of both hind paws were measured using a plethysmometer on days 0, 5, 7, 10, 14, and 17. The increase in paw edema at each time point was determined by comparison with paw volume measured on day 0. Inhibition of edema was calculated by comparison with vehicle control at the same time point. This study was a GLP study (#1038342) performed by MDS Pharma Services (Taiwan).

`CC(=O)Oc1ccccc1C(=O)O` [aspirin]: the “Griess assay % LPS control” value in assay [1] came out at 69%.

Consider `COc1ccc2c(c1)c(CC(=O)O)c(C)n2C(=O)c1ccc(Cl)cc1` [indomethacin], for which the entries for the “Rat Paw Edema, inhibition of edema vs vehicle control” value in the assay on Wistar rats (3 h after carrageenan), with Wistar rats (5 h after carrageenan) and with Wistar rats (24 h after carrageenan) were 43%, 36% and 51%, respectively. Besides, the “Mouse arthritis % inhibition of edema” value in the assay on BALB/c mice (day 5) came out at 83%; with BALB/c mice (day 7), 81%; with BALB/c mice (day 10), 82%; in the assay with BALB/c mice (day 14), 77%; in the assay with BALB/c mice (day 17), 85%.

Values taken from patent US7226623B2, “In vitro and in vivo anti-inflammatory effects of a sesquiterpene lactone extract from chicory (Cichorium intybus L.)” (Rutgers, The State University of New Jersey, priority 2005, dated 2007).
